For orientation: Cmax means the maximum level reached in the sampled fluid or tissue. The term IC50 denotes the concentration that inhibits the measured activity by half.

From patent US12281122B1, “PI3K inhibitors” (Cogent Biosciences, Inc., priority 2023, dated 2025) come the findings set out here.

Like-named read-outs stand apart in the source and are kept apart here.

Data set [1] can be described thus: Mouse PK, IV and PO. The note with it: in vivo; for clearance: read-out: PK-Mouse: IV Cl; for bioavailability: read-out: PK-Mouse: PO F (%).
Data set [2] addresses PI3Kα (Homo sapiens, UniProt P42336). Briefly: PI3Kα enzyme assay (Transcreener ADP2 TR-FRET Red Assay). The data set is classed as biochemical. To be noted: purified recombinant full-length protein; 2 hours pre-incubation with compound; read-out: PI3Kα WT IC50. The procedure, abridged: (§1)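 IC50 taken at 50 POC from a four-parameter logistic fit of TR-FRET (665/615 nm) ADP signal. Reactions used full-length recombinant enzyme, compound pre-incubation for 2 h, then 60 min with ATP and PI(4,5)P2 diC8 substrate at room temperature, pH 7.5 HEPES buffer with 25 mM MgCl2; compounds tested from 50,000 to 0.85 nM.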
In general terms: In TR-FRET formats the signal depends on donor and acceptor labels being close together.

Data set [3] deals with PI3Kα H1047R (Homo sapiens, UniProt P42336, H1047R). Briefly: PI3Kα H1047R enzyme assay (Transcreener ADP2 TR-FRET Red Assay). The data set is classed as biochemical. The note with it: purified recombinant full-length protein; 2 hours pre-incubation with compound. In a few lines:
as §1

For data set [4], the system named is T47D (PI3Kα-H1047R) cell line. Nature of the data set: HTRF phospho-AKT(S473) cell assay in T47D cells. The class given is cell-based, human. The note with it: Homo sapiens; T47D (PI3Kα-H1047R) cells, HTRF phospho-AKT(S473), 2 hours compound incubation. In a few lines: (§2)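 HTRF read-out of phospho-AKT(S473) in lysates gave IC50 values after 2 h compound exposure at 37° C. Dose series was 12 points at 1:3, topping at 5 μM for T47D and 10 μM for SKBR3. Only SKBR3 received 70 ng/ml PDGF-BB during the last 15 minutes.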

The subject of data set [5] is SKBR3 (PI3Kα-Wild Type) cell line. Briefly: HTRF phospho-AKT(S473) cell assay in SKBR3 cells. The data set is classed as cell-based, human. To be noted: Homo sapiens, SK-BR-3; SKBR3 (PI3Kα-Wild Type) cells, HTRF phospho-AKT(S473), 2 hours compound incubation, PDGF-BB stimulated. In a few lines: as §2
Setting [6] is: IV dose 3 mg/kg, read-out: PK-Mouse: IV-AUCinf.
Setting [7] is: PO dose 30 mg/kg, 20% Captisol (aq), fed.
Where [8] appears, read: PO dose 30 mg/kg, 20% Captisol (aq), fed, read-out: PK-Mouse: PO AUCinf.

PI3Kα H1047R, sequence (P42336 whole entry H1047R): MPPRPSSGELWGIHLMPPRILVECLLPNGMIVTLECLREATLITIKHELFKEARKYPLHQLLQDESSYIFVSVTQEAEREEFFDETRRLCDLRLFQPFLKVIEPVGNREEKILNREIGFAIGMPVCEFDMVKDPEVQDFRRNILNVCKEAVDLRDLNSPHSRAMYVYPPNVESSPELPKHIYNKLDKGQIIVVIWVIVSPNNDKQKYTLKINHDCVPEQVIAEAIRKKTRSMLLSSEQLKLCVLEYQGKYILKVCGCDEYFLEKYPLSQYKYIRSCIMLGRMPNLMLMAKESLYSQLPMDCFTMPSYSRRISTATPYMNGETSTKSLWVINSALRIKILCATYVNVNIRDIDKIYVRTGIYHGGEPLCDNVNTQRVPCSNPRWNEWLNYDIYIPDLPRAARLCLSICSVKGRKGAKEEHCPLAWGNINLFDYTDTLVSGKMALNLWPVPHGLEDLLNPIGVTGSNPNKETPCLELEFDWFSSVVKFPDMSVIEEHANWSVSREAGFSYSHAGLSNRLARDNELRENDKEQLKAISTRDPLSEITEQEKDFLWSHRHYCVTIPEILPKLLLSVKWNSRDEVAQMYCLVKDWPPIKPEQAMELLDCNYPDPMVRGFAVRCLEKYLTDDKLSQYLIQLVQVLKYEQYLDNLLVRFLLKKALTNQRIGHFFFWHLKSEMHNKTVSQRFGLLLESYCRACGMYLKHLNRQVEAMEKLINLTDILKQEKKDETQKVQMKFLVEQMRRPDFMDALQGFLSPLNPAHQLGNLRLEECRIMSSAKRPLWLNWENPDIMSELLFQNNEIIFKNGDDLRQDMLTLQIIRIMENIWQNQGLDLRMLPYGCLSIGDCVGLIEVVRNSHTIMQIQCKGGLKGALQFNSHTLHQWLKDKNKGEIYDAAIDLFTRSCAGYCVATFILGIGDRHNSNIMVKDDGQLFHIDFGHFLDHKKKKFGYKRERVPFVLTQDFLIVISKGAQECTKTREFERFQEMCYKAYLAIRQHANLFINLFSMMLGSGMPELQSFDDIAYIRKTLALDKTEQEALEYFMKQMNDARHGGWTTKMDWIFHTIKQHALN
PI3Kα H1047R, sequence (P27986 2-724 partner): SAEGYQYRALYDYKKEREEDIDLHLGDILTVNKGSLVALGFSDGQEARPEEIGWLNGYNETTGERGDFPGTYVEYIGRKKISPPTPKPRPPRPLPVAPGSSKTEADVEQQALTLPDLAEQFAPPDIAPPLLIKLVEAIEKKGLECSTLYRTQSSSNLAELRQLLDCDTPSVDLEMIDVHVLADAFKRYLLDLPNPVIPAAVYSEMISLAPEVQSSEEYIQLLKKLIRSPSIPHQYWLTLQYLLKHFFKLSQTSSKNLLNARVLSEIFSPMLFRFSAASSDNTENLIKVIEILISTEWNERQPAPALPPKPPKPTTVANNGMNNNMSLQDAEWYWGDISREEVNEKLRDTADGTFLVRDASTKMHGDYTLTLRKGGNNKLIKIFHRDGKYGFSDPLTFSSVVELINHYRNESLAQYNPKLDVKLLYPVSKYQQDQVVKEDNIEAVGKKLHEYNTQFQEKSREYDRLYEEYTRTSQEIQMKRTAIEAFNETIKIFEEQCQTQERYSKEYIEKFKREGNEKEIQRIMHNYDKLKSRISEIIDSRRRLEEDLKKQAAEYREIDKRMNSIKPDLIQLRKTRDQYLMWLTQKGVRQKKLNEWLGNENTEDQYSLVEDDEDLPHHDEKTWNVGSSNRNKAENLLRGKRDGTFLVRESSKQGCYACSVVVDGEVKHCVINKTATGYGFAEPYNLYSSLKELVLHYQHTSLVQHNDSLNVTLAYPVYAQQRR
PI3Kα, sequence (P42336 whole entry): as the sequence (P42336 whole entry H1047R) above, with R1047H counted along it
PI3Kα, sequence (P27986 2-724 partner): as the sequence (P27986 2-724 partner) above

Turning to `Cc1cc([C@@H](C)Nc2ccc(Cl)nc2C(=O)O)c2nc(N3Cc4ccc(F)cc4C3)n(C)c(=O)c2c1` [Compound 1 acid derivative, (R)-6-chloro-3-((1-(2-(5-fluoroisoindolin-2-yl)-3,6-dimethyl-4-oxo-3,4-dihydroquinazolin-8-yl)ethyl)amino)picolinic acid, reference compound], in data set [1] (IV dose 3 mg/kg), the clearance was determined as 24.3 mL/min/kg. Besides, the AUC(0-inf) in data set [1] (setting [6]) was determined as 2070 ng·h/mL. Further, in data set [1] (setting [7]), the highest level (Cmax) was 2490 ng/mL and the bioavailability worked out at 43%. The AUC(0-inf) in data set [1] (setting [8]) was found to be 8850 ng·h/mL.
Take `Cc1cc([C@@H](C)Nc2ccc(Cl)nc2C(=O)NS(C)(=O)=O)c2nc(N3Cc4ccc(F)cc4C3)n(C)c(=O)c2c1` [Compound 1, (R)-6-chloro-3-((1-(2-(5-fluoroisoindolin-2-yl)-3,6-dimethyl-4-oxo-3,4-dihydroquinazolin-8-yl)ethyl)amino)-N-(methylsulfonyl)picolinamide]: the IC50 in data set [2] was not below 1000 nM; in data set [3], 500 to 1000 nM; in data set [4], less than 250 nM; in data set [5], 1000 to 5000 nM. In addition, the clearance in data set [1] (IV dose 3 mg/kg) was 0.74 mL/min/kg. Besides, the figures for the AUC(0-inf) in data set [1] (setting [6]) and in data set [1] (setting [8]) were 67500 ng·h/mL and 548000 ng·h/mL, respectively. In data set [1] (setting [7]), this compound came in with a Cmax of 35500 ng/mL. For the same compound, the bioavailability in data set [1] (setting [7]) came to 81%.
On to `Cc1cc([C@@H](C)Nc2ccc(Cl)nc2C(=O)NS(C)(=O)=O)c2nc(N(C)C34CC(C3)C4)n(C)c(=O)c2c1` [Compound 13, (R)-3-((1-(2-(bicyclo[1.1.1]pentan-1-yl(methyl)amino)-3,6-dimethyl-4-oxo-3,4-dihydroquinazolin-8-yl)ethyl)amino)-6-chloro-N-(methylsulfonyl) picolinamide], for which the IC50 in data set [2] is not below 1000 nM; in data set [3], 500 to 1000 nM; in data set [4] it was 250 to 500 nM; in data set [5], 1000 to 5000 nM.
`Cc1cc([C@@H](C)Nc2ccc(Cl)nc2C(=O)NS(C)(=O)=O)c2nc(N3Cc4cnn(CC5CC5)c4C3)n(C)c(=O)c2c1` [Compound 47, (R)-6-chloro-3-((1-(2-(1-(cyclopropylmethyl)-4,6-dihydropyrrolo[3,4-c]pyrazol-5(1H)-yl)-3,6-dimethyl-4-oxo-3,4-dihydroquinazolin-8-yl)ethyl)amino)-N-(methylsulfonyl) picolinamide]: the IC50 in data set [2] was 500 to 1000 nM; in data set [3], less than 100 nM; in data set [4], less than 250 nM; in data set [5], 1000 to 5000 nM.
Take `Cc1cc([C@@H](C)Nc2ccc(Cl)nc2C(=O)NS(C)(=O)=O)c2nc(N3CCCC3)n(C)c(=O)c2c1` [Compound 16]: the IC50 in data set [2] was not below 1000 nM; in data set [3] it was 250 to 500 nM; in data set [4] it was 250 to 500 nM; in data set [5], 1000 to 5000 nM.
As for `Cc1cc([C@@H](C)Nc2ccc(Cl)nc2C(=O)NS(C)(=O)=O)c2nc(-c3cnc(C)c(F)c3)n(C)c(=O)c2c1` [Compound 91, (R)-6-chloro-3-((1-(2-(5-fluoro-6-methylpyridin-3-yl)-3,6-dimethyl-4-oxo-3,4-dihydroquinazolin-8-yl)ethyl)amino)-N-(methylsulfonyl) picolinamide], the IC50 is not below 1000 nM in data set [2], 250 to 500 nM in data set [3], less than 250 nM in data set [4] and 1000 to 5000 nM in data set [5].
As to `Cc1cc([C@@H](C)Nc2cccnc2C(=O)NS(C)(=O)=O)c2nc(N3Cc4ccc(F)cc4C3)n(C)c(=O)c2c1` [Compound 58, (R)-3-((1-(2-(5-fluoroisoindolin-2-yl)-3,6-dimethyl-4-oxo-3,4-dihydroquinazolin-8-yl)ethyl)amino)-N-(methylsulfonyl) picolinamide], the IC50 in data set [2] is not below 1000 nM; in data set [3] it was not below 1000 nM; in data set [4], 250 to 500 nM; in data set [5], 1000 to 5000 nM.
Take `Cc1cc([C@@H](C)Nc2ccc(Cl)nc2C(=O)NS(C)(=O)=O)c2nc(NCC3CC(F)(F)C3)n(C)c(=O)c2c1` [Compound 20, (R)-6-chloro-3-((1-(2-(((3,3-difluorocyclobutyl)methyl)amino)-3,6-dimethyl-4-oxo-3,4-dihydroquinazolin-8-yl)ethyl)amino)-N-(methylsulfonyl) picolinamide]: the IC50 in data set [2] was not below 1000 nM; in data set [3], not below 1000 nM; in data set [4], 500 to 1000 nM; in data set [5], 1000 to 5000 nM.
As for `Cc1cc([C@H](C)Nc2ccccc2S(=O)(=O)NC(=O)C(F)F)c2nc(N3Cc4ccc(F)cc4C3)n(C)c(=O)c2c1` (single isomer, unassigned) [Compound 103, 2,2-difluoro-N-((2-((1-(2-(5-fluoroisoindolin-2-yl)-3,6-dimethyl-4-oxo-3,4-dihydroquinazolin-8-yl)ethyl)amino)phenyl)sulfonyl)acetamide], the IC50 in data set [2] was not below 1000 nM; in data set [3], not below 1000 nM; in data set [4], 1000 to 5000 nM; in data set [5] it was not below 5000 nM.
Consider `Cc1cc([C@@H](C)Nc2ccc(Cl)nc2C(=O)NS(C)(=O)=O)c2nc(N3C[C@H](C)O[C@@H](C)C3)n(C)c(=O)c2c1` [Compound 25, 6-chloro-3-(((R)-1-(2-((2S,6S)-2,6-dimethylmorpholino)-3,6-dimethyl-4-oxo-3,4-dihydroquinazolin-8-yl)ethyl)amino)-N-(methylsulfonyl) picolinamide], for which the IC50 in data set [2] was not below 1000 nM; in data set [3], not below 1000 nM; in data set [4] it was 250 to 500 nM; in data set [5], 1000 to 5000 nM.
For `CC(=O)NS(=O)(=O)c1nc(Cl)ccc1N[C@H](C)c1cc(F)cc2c(=O)n(C)c(N3CCC(F)(F)CC3)nc12` [Compound 77, (R)-N-((6-chloro-3-((1-(2-(4,4-difluoropiperidin-1-yl)-6-fluoro-3-methyl-4-oxo-3,4-dihydroquinazolin-8-yl)ethyl)amino)pyridin-2-yl)sulfonyl)acetamide], the IC50 in data set [2] was not below 1000 nM; in data set [3], not below 1000 nM; in data set [4], 1000 to 5000 nM; in data set [5] it was not below 5000 nM.
Regarding `Cc1cc([C@@H](C)Nc2ccc(Cl)nc2C(=O)NS(C)(=O)=O)c2nc(N3Cc4cnn(C(C)C)c4C3)n(C)c(=O)c2c1` [Compound 49, (R)-6-chloro-3-((1-(2-(1-isopropyl-4,6-dihydropyrrolo[3,4-c]pyrazol-5(1H)-yl)-3,6-dimethyl-4-oxo-3,4-dihydroquinazolin-8-yl)ethyl)amino)-N-(methylsulfonyl) picolinamide], the IC50 is not below 1000 nM in data set [2], 100 to 250 nM in data set [3], less than 250 nM in data set [4] and 1000 to 5000 nM in data set [5].
Turning to `C[C@@H](Nc1ccc(Cl)nc1C(=O)NS(C)(=O)=O)c1cc(F)cc2c(=O)n(C)c(N3Cc4cnn(C)c4C3)nc12` [Compound 28, (R)-6-chloro-3-((1-(6-fluoro-3-methyl-2-(1-methyl-4,6-dihydropyrrolo[3,4-c]pyrazol-5(1H)-yl)-4-oxo-3,4-dihydroquinazolin-8-yl)ethyl)amino)-N-(methylsulfonyl) picolinamide], the IC50 in data set [2] is not below 1000 nM; in data set [3] it was 500 to 1000 nM; in data set [4], less than 250 nM; in data set [5], 1000 to 5000 nM.
